The results in this text go back to patent US4061777A, “Vasodilatory terpeno-phenoxyalkylamines” (Mar-Pha, Societe d'Etudeet d'Exploitation de Marques Mar-Pha, priority 1974, dated 1977).

Each structure is given as a SMILES string. Converted amounts (≈) assume the structure as drawn.

The test system of assay [1] is Staphylococcus aureus. Description: Bacteriostatic activity by the method of streaks in gelose media (minimum inhibitory concentration), Staphylococcus aureus. Conditions: Staphylococcus aureus (gram +ve). It is filed as cell-based. On the procedure: (§1) The bacteriostatic activity of the products according to the invention have been evaluated by the method of streaks in gelose media. This method comprises making increasing dilutions of the product to be tested, in nutritive gels poured in a Petri dish. The bacteria to be studied are introduced onto the geloses in parallel streaks by means of a platinum loop which has been immersed in a 24 hour old culture of the bacteria. […] The activity of the compounds has been studied vis a vis gram + ve (Staphylococcus aureus) and gram - ve (Escherichia coli) bacteria.

The test system of assay [2] is Escherichia coli. The assay is described as follows: Bacteriostatic activity by the method of streaks in gelose media (minimum inhibitory concentration), Escherichia coli. In kind it is cell-based. The note with it: Escherichia coli (gram -ve). On the procedure: as §1
Assay [3] relates to heart taken from a rabbit. The assay is described as follows: Coronaro-dilatory effects in vitro on isolated rabbit heart (Langendorff's technique). Conditions: for Coronary output, Duration in mins.: duration of the variation in coronary output. Here is the method: They were measured in vitro on a heart taken from a rabbit, according to Langendorff's technique. The terpenophenoxy alkylamines according to the invention are administered to the aortic canal at a constant volume of 1 cm^3 for 1 minute.
The following table indicates the increase in the coronary output and the duration of this variation, depending on the doses.

Where [4] appears, read: Oryctolagus cuniculus, 1 min, dose 3 μg/cm^3, aortic canal, 1 cm^3 for 1 minute, increase (+), read-out: Coronary output, Variations in %.
Setting [5] is: Oryctolagus cuniculus, 1 min, dose 10 μg/cm^3, aortic canal, 1 cm^3 for 1 minute, increase (+), read-out: Coronary output, Variations in %.
The mark [6] stands for this setting: Oryctolagus cuniculus, 1 min, dose 1 μg/cm^3, aortic canal, 1 cm^3 for 1 minute, increase (+), read-out: Coronary output, Variations in %.

As to `Cc1cc(OCCN)c(C2CC3CCC2(C)C3(C)C)cc1C` (centres unmarked) [Example 1, 2-(2'-isobornyl-4',5'-dimethylphenoxy) ethylamine], the values for the MIC in assay [1] and in assay [2] were 5 µg/mL (≈ 16.6 µM) and 7.5 µg/mL (≈ 24.9 µM), respectively. Also, the activation at 3 µg/mL in assay [3] (setting [4]) is 37%. Further, the activation at 10 µg/mL in assay [3] (setting [5]) was 55%. The “Coronary output, Duration in mins.” value in assay [3] (dose 3 μg/cm^3) and in assay [3] (dose 10 μg/cm^3) was 5 min each time.

Take `Cc1cc(OCCN)c(C2CC3CCC2(C)C3(C)C)cc1Br` (centres unmarked) [Example 2, 2-(2'-isobornyl-4'-bromo-5'-methylphenoxy) ethylamine]: the MIC (in general, the lowest concentration found to suppress growth) turned out to be 5 µg/mL (≈ 13.6 µM) in assay [1] and 10 µg/mL (≈ 27.3 µM) in assay [2]. In assay [3] (setting [6]), the activation at 1 µg/mL is 23%. In addition, in assay [3] (setting [4]), the activation at 3 µg/mL was 39%. Besides, the “Coronary output, Duration in mins.” value in assay [3] (dose 1 μg/cm^3) and in assay [3] (dose 3 μg/cm^3) was above 15 min in each case.

`CC1(C)C2CCC1(C)C(c1cc(Br)ccc1OCCN)C2` (centres unmarked) [Example 3, 2-(2'-isobornyl-4'-bromophenoxy) ethylamine]: the MIC in assay [1] stood at 7.5 µg/mL (≈ 21.3 µM); in assay [2], 5 µg/mL (≈ 14.2 µM). Besides, the activation at 1 µg/mL in assay [3] (setting [6]) is 4%. Further, in assay [3] (setting [4]), the activation at 3 µg/mL came out at 36%. Moreover, the “Coronary output, Duration in mins.” value in assay [3] (dose 1 μg/cm^3) was 3 min; in assay [3] (dose 3 μg/cm^3), above 15 min.

As to `Cc1cc(OCC(O)CN)c(C2CC3CCC2(C)C3(C)C)cc1C` (centres unmarked) [Example 4, 3-(2'-isobornyl-4,5'-dimethylphenoxy)-1-amino propan-2-ol], the MIC in assay [1] and in assay [2] was 5 µg/mL (≈ 15.1 µM) each time. Further, the activation at 3 µg/mL in assay [3] (setting [4]) stood at 127%. For the same molecule, the activation at 10 µg/mL in assay [3] (setting [5]) came out at 140%. Further, the “Coronary output, Duration in mins.” value in assay [3] (dose 3 μg/cm^3) came to 15 min; in assay [3] (dose 10 μg/cm^3) it was 12 min.

In the case of `Cc1cc(OCC(O)CN)c(C2CC3CC2C(C)C3(C)C)cc1C` (centres unmarked) [Example 5, 3-(2'-isocamphyl-4',5'-dimethylphenoxy)-1-amino propan-2-ol], the MIC in assay [1] and in assay [2] was 5 µg/mL (≈ 15.1 µM) throughout. In assay [3] (setting [6]), the activation at 1 µg/mL came out at 13%. Besides, the activation at 3 µg/mL in assay [3] (setting [4]) worked out at 70%. The entries for the “Coronary output, Duration in mins.” value in assay [3] (dose 1 μg/cm^3) and in assay [3] (dose 3 μg/cm^3) were 2 min and above 15 min, respectively.

With `Cc1cc(OCC(O)CNC(C)C)c(C2CC3CC2C(C)C3(C)C)cc1C` (centres unmarked) [Example 6, 3-(2'-isocamphyl-4',5'-dimethylphenoxy)-1-isopropylamino propan-2-ol], the MIC in assay [1] was determined as 5 µg/mL (≈ 13.4 µM). Further, in assay [3] (setting [4]), the activation at 3 µg/mL is 36%. The activation at 10 µg/mL in assay [3] (setting [5]) was determined as 66%. In addition, the “Coronary output, Duration in mins.” value in assay [3] (dose 3 μg/cm^3) was found to be 15 min; in assay [3] (dose 10 μg/cm^3) it was 9 min.

As for `Cc1cc(OCCNCCO)c(C2CC3CCC2(C)C3(C)C)cc1C` (centres unmarked) [Example 7, N-hydroxyethyl-2-(2'-isobornyl-4',5'-dimethylphenoxy) ethylamine], the MIC in assay [1] amounted to 10 µg/mL (≈ 28.9 µM); in assay [2], 30 µg/mL (≈ 86.8 µM). The activation at 3 µg/mL in assay [3] (setting [4]) was 51%. The activation at 10 µg/mL in assay [3] (setting [5]) was found to be 109%. Moreover, the “Coronary output, Duration in mins.” value in assay [3] (dose 3 μg/cm^3) and in assay [3] (dose 10 μg/cm^3) was above 15 min in each case.

For `CC1(C)C2CCC1(C)C(c1ccccc1OCC(O)CN)C2` (centres unmarked) [Example 8, 1-Amino 3-(2'-isobornylphenoxy) propan-2-ol], the MIC in assay [1] was 20 µg/mL (≈ 65.9 µM); in assay [2], 7.5 µg/mL (≈ 24.7 µM). In addition, in assay [3] (setting [4]), the activation at 3 µg/mL worked out at 24%. Further, in assay [3] (setting [5]), the activation at 10 µg/mL amounted to 63%. Further, the “Coronary output, Duration in mins.” value in assay [3] (dose 3 μg/cm^3) is 6 min; in assay [3] (dose 10 μg/cm^3), 12 min.

For the molecule `CC(C)NCC(O)COc1ccccc1C1CC2CCC1(C)C2(C)C` (centres unmarked) [Example 9, 1-Isopropylamino 3-(2'-isobornylphenoxy) propan-2-ol], the activation at 3 µg/mL in assay [3] (setting [4]) was determined as 95%. In assay [3] (setting [5]), the activation at 10 µg/mL was 102%. Further, the “Coronary output, Duration in mins.” value in assay [3] (dose 3 μg/cm^3) and in assay [3] (dose 10 μg/cm^3) was 4 min each time.

For the molecule `Cc1cc(OCCN)c(C2CC3CCC2(C)C3(C)C)cc1Cl` (centres unmarked) [Example 10, 2-(2-isobornyl-4-chloro-5-methylphenoxy) ethylamine], the MIC in assay [1] and in assay [2] was 7.5 µg/mL (≈ 23.3 µM) in each case. In addition, the activation at 1 µg/mL in assay [3] (setting [6]) is 34%. For the same molecule, the activation at 3 µg/mL in assay [3] (setting [4]) stood at 60%. In addition, the “Coronary output, Duration in mins.” value in assay [3] (dose 1 μg/cm^3) and in assay [3] (dose 3 μg/cm^3) was above 15 min in each case.

Regarding `Cc1cc(OCC(O)CNC(C)C)c(C2CC3CCC2(C)C3(C)C)cc1C` (centres unmarked) [Example 11, 1-isopropylamino 3-(2'-isobornyl-4',5'-dimethylphenoxy) propan-2-ol], in assay [3] (setting [4]), the activation at 3 µg/mL worked out at 72%. The activation at 10 µg/mL in assay [3] (setting [5]) came out at 210%. Besides, the “Coronary output, Duration in mins.” value in assay [3] (dose 3 μg/cm^3) came out at 5 min; in assay [3] (dose 10 μg/cm^3) it was 12 min.

Take `Cc1ccc(OCC(O)CN)c(C2CC3CC2C(C)C3(C)C)c1` (centres unmarked) [Example 12, 1-amino 3-(2'-isocamphyl-4'-methylphenoxy) propan-2-ol]: the MIC turned out to be 7.5 µg/mL (≈ 23.6 µM) in assay [1] and 5 µg/mL (≈ 15.7 µM) in assay [2]. In addition, in assay [3] (Oryctolagus cuniculus, 1 min, dose 100 μg/cm^3, aortic canal, 1 cm^3 for 1 minute, increase (+), read-out: Coronary output, Variations in %), the activation at 100 µg/mL is 31%. Besides, the “Coronary output, Duration in mins.” value in assay [3] (dose 100 μg/cm^3) stood at 4 min.
